Earlier results in patent US20050123612A1, “Ribavirin granulate for producing coated tablets” (priority 2001, published 2005).

Test system: embryo development
Details: animal experiments; in particular first six weeks of embryo development

For `NC(=O)c1ncn([C@@H]2O[C@H](CO)[C@@H](O)[C@H]2O)n1` [ribavirin, 1-β-D-Ribafuranosyl-1,2,4-triazole-3-carboxamide], the teratogenicity is listed as “teratogenic”.
